This passage reports IC50 results from US20100298377A1, “NOVEL SUBSTITUTED INDAZOLES, THE PREPARATION THEREOF AND USE OF SAME IN THERAPEUTICS” (SANOFI-AVENTIS, priority 2007, published 2010).

One test addresses AKT1 (Homo sapiens, UniProt P31749, S473D). Briefly: Determination of the IC50 for AKT1 (HTRF). Format: biochemical. Conditions: AKT1 without PH domain, activated by PDK1. The method, then: Determination of the IC50 for AKT1
The inhibitory potential of the compounds is evaluated by HTRF, a time-resolved fluorescence technique based on non-radiative energy transfer (FRET). […] This phosphorylation allows the kinase activity of AKT1 to be activated.
Starting with a 10 mM solution of inhibitors, 3 μl are taken and placed in a 96-well polypropylene plate containing 27 μl of 100% DMSO. The various test compounds are diluted in cascade by taking 15 μl of compound, to which are added 30 μl of 100% DMSO.
The various reaction components are added in the following manner:
Next, 10 μl of the inhibitor solution are added. Finally, the reaction is initiated by adding 10 μl of a solution containing both 100 μM of ATP and 10 μM of biotinylated peptide. The sequence of this peptide is as follows: biot-[…] (reference Neosystem SP000560). The plate is then covered with a plastic film, agitated and finally incubated at RT for 30 minutes. […] After incubation overnight at 4° C., the plate is read using an Ultra evolution spectrophotometer from Tecan. […] All the tests are performed in duplicate and the mean of the two tests is calculated.
For each point, a delta F is calculated in the following manner:
(§1) R(Ratio)=counts665 nm/counts620 nm
ΔF % is calculated by the Tecan Ultra Evolution machine.
In general terms: TR-FRET usually uses a lanthanide donor and a delayed reading to cut background.

In test [1] the test system is C-433 cells (human Ewing sarcoma cells). Briefly: Proliferation of C-433 cells, intracellular ATP, CellTiter-Glo test. The format is cell-based. To be noted: 96 hours. The text has this:
(§2) b. Study of the Proliferation of Human Tumoral MIA PaCa-2, C-433, LnCaP and MCF7 Cells via Assay of the Intracellular ATP Using the Celltiter-Glo™ Test
(§3) The kit CellTiter-Glo™ for measuring cell viability via luminescence ([…]) is a homogeneous method for determining the number of viable cells in culture, based on quantification of the ATP present in the cells, and which indicates the presence of metabolically active cells.
(§4) The cell lines used in this test were the following: MIA PaCa-2 cells (human pancreatic carcinoma cells, ATCC, CRL-1420), C-433 cells (human Ewing sarcoma cells, DSMZ, ACC 268), LNCaP clone FGC cells (human prostate carcinoma cells, ATCC, CRL-1740), MCF7 cells (human breast carcinoma cells, ECACC, #86012803). The cells MIAPaCa-2 and LNCaP were cultured in D-MEM culture medium (Invitrogen Gibco, #419656-039) containing 10% foetal calf serum (FCS, Invitrogen Gibco, #10500-064) and 2 mM L-Glutamine (Invitrogen Gibco, #25030-024); the C-433 cells were cultured in MCCoy's 5A culture medium (Invitrogen Gibco, #26600-023)/RPMI 1640 (Invitrogen Gibco, #31870-025) (50/50) containing 10% FCS and 2 mM L-glutamine; the MCF7 cells were cultured in EMEM culture medium (EMEM, Biowhittaker, Lonza, #BE12-662F) containing 10% FCS and 2 mM L-Glutamine.
(§5) Evaluation of the Cell Viability via Luminescence Measurement: Celltiter-Glo™ Test
(§6) On day 1, the cells were inoculated at 1000 (C-433), 2500 (MCF7) and 10000 (LNCaP and MIA PaCa-2) cells per well in black-bottomed 96-well microplates (NUNC fluoronunc, Fisherbioblock 2311K) in 135 μl of whole culture medium and incubated at 37° C., 5% CO2, for 3 to 6 hours. The cells were then incubated with increasing concentrations of molecules diluted in dimethyl sulfoxide (DMSO, Sigma D2650). The molecules were added in a volume of 15 μl of a 10-fold concentrated solution in a final volume of 150 μl, the final percentage of DMSO being 0.1%. The cells were incubated at 37° C., 5% CO2, for 96 hours. After 4 days of treatment with the molecules, the CellTiter-Glo™ was performed by following the manufacturer's instructions (Kit Celltiter-Glo Luminescent, PROMEGA #G7571). Briefly, the cell plates were equilibrated for about 30 minutes at RT and 100 μl per well of Celltiter-Glo reagent were added. The cells were incubated for 1 hour at RT for lysis of the cells and stabilization of the signal. The intracellular ATP was quantified by measuring the luminescence in rlu units (relative luminescence units), 96 hours after initiation of the treatment, using a luminescence counter (Wallac). The tests were performed in six replicates.
(§7) i) the mean±s.e.m. of each series of well replicates was calculated;
(§8) ii) the maximum response is given by positive control wells containing untreated cells; this control was performed in 12 replicates;
(§9) iii) the minimum response is given by cell-free and untreated negative control wells; this control was performed in 6 replicates;
(§10) iv) using these maximum (100%) and minimum (0%) response values, respectively, the data were normalized to give a percentage relative to the maximum response;
(§11) The IC50 values were calculated by […] with the XLfit software (IDBS, UK) using formula 205.
A general note: In ATP-based viability assays light output follows the ATP content of the culture.

Test [2] relates to MCF7 cells (human breast carcinoma cells). Briefly: Proliferation of MCF7 cells, intracellular ATP, CellTiter-Glo test. Conditions: 96 hours. The format is cell-based.
Text: as §2, §3, §4, §5, §6, §7, §8, §9, §10, §11

For test [3], the system named is MEF-IGF1 murine fibroblast cells. Briefly: IGF1-dependent proliferation of MEF-IGF1 cells via incorporation of [14C]-thymidine. Format: cell-based. Conditions: [14C]-thymidine incorporation, IGF1 stimulated, 72 hours, read-out: IC50 MEF-IGF.
Text: a. Study of the IGF1-Dependent Proliferation of MEF-IGF1 Murine Fibroblast Cells Measured via Incorporation of [14C]-Thymidine
This test is based on the incorporation of [^14C]-thymidine into the DNA of the cells for the S phase of the cell cycle during cell division. The cell line used in this test is the MEF/3T3 Tet-Off Clone 18 line obtained by stable transfection of the human receptor IGF1R in murine MEF/3T3 Tet-Off fibroblasts. To measure the IGF1-dependent cell proliferation, the cells were deprived of serum and cultured for 3 days in the serum-free culture medium in the presence of the growth factor IGF1 which stimulates the proliferation of MEF-IGF1 cells.
Test of Incorporation of [^14C]-Thymidine into MEF-IGF1 Cells
On day 1, the cells were inoculated with 7500 cells per well in Cytostar 96-well microplates (Amersham (GE) RPNQ0162) in 200 μl of EMEM medium (EMEM, Biowhittaker, #BE12-662F) containing 10% foetal calf serum (FCS, TET-BD Biosciences Tet System Approved FBS US-Sourced, #8630-1) and 1% PSG (Penicillin-Streptomycin-Glutamine (PSG), Gibco #10378-016), and incubated at 37° C., 5% CO2, for 24 hours. On day 2, the cells were washed in the FCS-free EMEM culture medium containing 1% PSG, and incubated in 170 μl of this serum-free culture medium at 37° C., 5% CO2, for 24 hours. On day 3, the cells were incubated with 10 μl of IGF1 (2 μg/ml of final concentration; recombinant human IGF-1, R & D Systems, #291-G1), 10 μl (0.1 μCi) of [^14C]-Thymidine (NEN NEC-568) plus 10 μl of increasing concentrations of the test molecules, diluted in dimethyl sulfoxide (DMSO, Sigma D2650). The molecules were added in a volume of 10 μl of a 20-fold concentrated solution in a final volume of 200 μl, the final percentage of DMSO being 0.1%. The treated cells were incubated at 37° C., 5% CO2, for 72 hours. The incorporation of [^14C]-Thymidine was quantified in cpm units (counts per minute) by counting the radioactivity 72 hours after the start of the treatment, using a Micro-Beta radioactivity counter (Perkin-Elmer). The tests were performed in duplicate.
as §7
ii) the background noise is calculated by preparing cell-free, IGF1-free and untreated control wells; this control was performed in 4 replicates. The background noise was removed at each measurement;
iii) the maximum response is given by positive control wells containing cells in the presence of IGF1 but untreated; this control was performed in 4 replicates;
iv) the minimum response is given by negative control wells containing IGF1-free and untreated cells; this control was performed in 4 replicates;
as §11

The subject of test [4] is LNCaP clone FGC cells (human prostate carcinoma cells). Briefly: Proliferation of LNCaP cells, intracellular ATP, CellTiter-Glo test. The format is cell-based. Conditions: 96 hours.
Text: as §2, §3, §4, §5, §6, §7, §8, §9, §10, §11

The target of test [5] is T1, Human S6K1 (24-421) T412E protein (Homo sapiens, UniProt P23443, T412E).
T1 construct: Human S6K1 (24-421) T412E protein; made in house; host or cells: Sf21 insect cells
Briefly: Determination of the IC50 for S6K1 (HTRF substrate phosphorylation test). The format is biochemical. To be noted: S6K1 activated by PDK1, ATP 30 μM. The method, then: Determination of the IC50 for S6K1
The inhibitory potential of the compounds for S6K1 is evaluated in an enzymatic test of phosphorylation of substrate in HTRF (Homogenous Time-Resolved Fluorescence) format. Human S6K1 (24-421) T412E protein is expressed in sf21 cells and purified by chromatography on a nickel chelate column. It is activated by PDK1.
The test comprises two steps, both performed at RT. The phosphorylation reaction takes place during the first step and the revelation step is performed during the second. […] The final concentrations of compounds thus obtained during the incubation period range from 10 μM to 0.17 nM and the concentration of enzyme is 2 nM. After incubation for 20 minutes, the reaction is stopped and the revelation initiated by addition of 30 μl of a mixture of streptavidin XL 665 Xlent, ref. 611SAXLB Cis bio international, and a europium cryptate-coupled anti-phospho-GSK3 antibody, ref. 64CUSKAZ Cis bio international, dissolved in the revelation buffer (HEPES/NaOH 166.7 mM, EDTA 221.7 mM, KF 667.7 mM, BSA 0.167%, pH 7.0). The reaction takes place in a black half-well plate ref. 3694 Costar.
A mixture of the reaction medium after each addition of reagent is obtained by agitation for a few minutes at 700-1000 rpm on a Heidolph Titramax 100 machine. The reading is taken on a TECAN Ultra Evolution machine after at least one night and up to 3 nights at 4° C. The reading settings are as follows: excitation wavelength 320 nm, emission wavelengths 620 and 665 nm, lag time 150 μs, integration time 500 μs.
For each point, the ΔF % is calculated as follows:
as §1
The IC50 values are calculated by means of the XLfit4 205 equation.

The subject of test [6] is MIA PaCa-2 cells (human pancreatic carcinoma cells). Nature of the test: Proliferation of MIA PaCa-2 cells, intracellular ATP, CellTiter-Glo test. The format is cell-based. To be noted: 96 hours.
Text: as §2, §3, §4, §5, §6, §7, §8, §9, §10, §11

Like-named read-outs stand apart in the source and are kept apart here.

Sequence of AKT1 (P31749 118-480 S473D limits assumed): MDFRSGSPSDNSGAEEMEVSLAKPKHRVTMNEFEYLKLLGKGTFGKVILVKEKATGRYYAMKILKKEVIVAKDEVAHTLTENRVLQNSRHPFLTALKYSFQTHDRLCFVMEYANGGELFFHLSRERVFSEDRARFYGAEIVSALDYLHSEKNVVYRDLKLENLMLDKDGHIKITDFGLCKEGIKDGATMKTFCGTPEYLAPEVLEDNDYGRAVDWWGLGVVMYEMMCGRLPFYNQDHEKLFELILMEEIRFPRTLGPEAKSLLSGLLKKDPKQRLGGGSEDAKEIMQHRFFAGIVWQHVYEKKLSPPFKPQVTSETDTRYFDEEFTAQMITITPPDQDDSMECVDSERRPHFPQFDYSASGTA
T1 sequence (P23443 24-421 T412E): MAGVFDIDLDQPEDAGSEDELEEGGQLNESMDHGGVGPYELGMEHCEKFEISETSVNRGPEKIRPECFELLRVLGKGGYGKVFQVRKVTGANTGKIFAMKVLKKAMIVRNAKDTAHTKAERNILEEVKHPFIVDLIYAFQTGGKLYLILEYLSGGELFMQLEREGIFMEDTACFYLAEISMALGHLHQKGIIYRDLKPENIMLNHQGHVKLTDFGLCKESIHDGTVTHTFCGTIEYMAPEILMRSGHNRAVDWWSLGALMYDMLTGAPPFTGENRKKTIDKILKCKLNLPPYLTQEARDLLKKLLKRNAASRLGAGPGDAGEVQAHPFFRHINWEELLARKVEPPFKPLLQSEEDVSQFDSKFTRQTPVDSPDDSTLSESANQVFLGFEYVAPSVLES

The IC50 is the point on the concentration scale where inhibition reaches its midpoint. Regarding “(7-Fluoro-1H-indazol-5-yl)-(S)-(3,4-dichlorophenyl)-(S)-piperid-2-ylmethyl carbamate [Ex 48]”, the IC50 on AKT1 is below 100 nM; in test [1], 505 nM; in test [2], 1500 nM; in test [3] it was 295 nM; in test [4], 1350 nM.
In the case of `O=C(Nc1ccc2[nH]ncc2c1)N[C@H](c1ccc(Cl)c(Cl)c1)[C@H]1CCCCN1` [Ex 6, 1-{(R)-(3,4-Dichlorophenyl)[(2R)-piperid-2-yl]methyl}-3-(1H-indazol-5-yl)urea], the figures for the IC50 (against AKT1; in test [5]; in test [6]) were below 100 nM, 100 to 500 nM and 2900 nM, respectively.
Regarding `CN1CCCCC1C(NC(=O)Nc1ccc2[nH]nc(-c3nc4ccccc4[nH]3)c2c1)c1ccccc1` [Ex 17, 1-[3-(1H-Benzimidazol-2-yl)-1H-indazol-5-yl]-3-[(1-methylpiperid-2-yl)(phenyl)methyl]urea((S,2S),(R,2R))], the IC50 at AKT1 is below 100 nM; in test [3] (Mus musculus, Fibroblast), 2230 nM; in test [4] (Homo sapiens, LNCaP-Clone-FGC) it was 670 nM.
On to `O=C(Nc1ccc2[nH]ncc2c1)N[C@@H](c1cc(Cl)cc(Cl)c1)[C@@H]1CCCCN1` [Ex 7, 1-{(S)-(3,5-Dichlorophenyl)[(2S)-piperid-2-yl]methyl}-3-(1H-indazol-5-yl)urea], for which the IC50 at AKT1 is below 100 nM; in test [3] (Mus musculus, Fibroblast), 280 nM; in test [4] (Homo sapiens, LNCaP-Clone-FGC), 5000 nM; in test [6], 9320 nM.
Consider `CN1CCCCC1C(NC(=O)Nc1ccc2[nH]nc(CCc3ccccc3)c2c1)c1ccccc1` [Ex 27, 1-[(1-Methylpiperid-2-yl)(phenyl)methyl]-3-[3-(2-phenylethyl)-1H-indazol-5-yl]urea((S,2S),(R,2R))], for which the IC50 against AKT1 fell in the range of 100 to 500 nM; in test [6], 1500 to 7000 nM.
Regarding `CN1CCCCC1C(NC(=O)Nc1ccc2[nH]nc(C#Cc3ccccc3)c2c1)c1ccccc1` [Ex 23, 1-[(1-Methylpiperid-2-yl)(phenyl)methyl]-3-[3-(phenylethynyl)-1H-indazol-5-yl]urea((S,2S),(R,2R))], the IC50 at AKT1 was below 100 nM; in test [5], 500 to 2000 nM; in test [6] it was 930 nM.
